Activity calls are given as the source filed them. No cut-off for these calls is given here.
Key:
H9c2 [1] = experiment: Cytotoxicity against rat H9c2 cells assessed as cell viability upto 20 uM incubated for 24 hrs by CCK-8 assay; assay type: toxicity, cell-based; conditions: h9c2, 24 h
Rattus norvegicus [2] = experiment: Cardioprotective activity in myocardial ischemia/reperfusion induced rat injury model assessed as reduction in myocardial fiber disruption at 5 to 20 mg/kg, iv pretreated with compound followed by MI/R induction measured after 30 mins by H and E staining based light microscopic analysis; assay type: functional, organism-based; conditions: dose 5-20 mg/kg
Rattus norvegicus [3] = experiment: Cardioprotective activity in myocardial ischemia/reperfusion induced rat injury model assessed as improvement in cardiac injury at 5 to 20 mg/kg, iv pretreated with compound followed by MI/R induction measured after 30 mins by H and E staining based light microscopic analysis; assay type: functional, organism-based; conditions: dose 5-20 mg/kg
H9c2 [4] = experiment: Protection against H/R induced damage in rat H9c2 cells assessed as increase in cell viability at 1 to 20 umol/L preincubated for 2 hrs followed by hypoxic reoxygenation induction by CCK-8 assay; assay type: functional, cell-based; conditions: dose 1-20 µmol/L
Rattus norvegicus [5] = experiment: Cardioprotective activity in iv dosed myocardial ischemia/reperfusion induced rat injury model assessed as reduction in area of infraction pretreated with compound followed by MI/R induction measured after 30 mins by TTC staining based assay; assay type: functional, organism-based; conditions: dose 5-20 mg/kg
Rattus norvegicus [6] = experiment: Antioxidant activity in myocardial ischemia/reperfusion induced rat injury model assessed as decrease in MDA level at 5 to 20 mg/kg, iv pretreated with compound followed by MI/R induction measured after 30 mins; assay type: functional, organism-based; conditions: dose 5-20 mg/kg
[7] = Toxicity in rat assessed as change in organ morphology at 20 to 100 mg/kg, iv measured after 14 days; assay type: organism-based; conditions: in vivo, 336 h, dose 20-100 mg/kg, time 14 day
Rattus norvegicus [8] = experiment: Antioxidant activity in myocardial ischemia/reperfusion induced rat injury model assessed as increase in SOD level at 5 to 20 mg/kg, iv pretreated with compound followed by MI/R induction measured after 30 mins; assay type: functional, organism-based; conditions: dose 5-20 mg/kg
Rattus norvegicus [9] = experiment: Cardioprotective activity in myocardial ischemia/reperfusion induced rat injury model assessed as prevention of heart rate decrease at 5 to 20 mg/kg, iv measured after 30 mins; assay type: functional, organism-based; conditions: dose 5-20 mg/kg
H9c2 [10] = experiment: Cardioprotective activity against H/R induced damage in rat H9c2 cells assessed as upregulation of CREB3L4 gene expression at 5 to 20 uM by RT-qPCR assay; assay type: functional, cell-based; conditions: dose 5-20 µM
Rattus norvegicus [11] = experiment: Cardioprotective activity in iv dosed myocardial ischemia/reperfusion induced rat injury model assessed as reduction in serum CK-MB level pretreated with compound followed by MI/R induction measured after 30 mins; assay type: functional, organism-based; conditions: dose 5-20 mg/kg
H9c2 [12] = experiment: Protection against H/R induced necrosis in rat H9c2 cells assessed as reduction in myocardial cell death at 5 to 20 uM preincubated with compound followed by hypoxic reoxygenation induction by Hoechst 33258/PI double staining based fluorescence microscopic analysis; assay type: functional; conditions: dose 5-20 µM
H9c2 [13] = experiment: Protection against H/R induced necrosis in rat H9c2 cells assessed as reduction in myocardial cell death preincubated with compound followed by hypoxic reoxygenation induction by Hoechst 33258/PI double staining based fluorescence microscopic analysis; assay type: functional; conditions: dose 5-20 µM
H9c2 [14] = experiment: Antioxidant activity against H/R induced damage in rat H9c2 cells assessed as reduction in MDA level at 5 to 20 uM preincubated with compound followed by hypoxic reoxygenation induction; assay type: functional, cell-based; conditions: dose 5-20 µM
H9c2 [15] = experiment: Antioxidant activity against H/R induced damage in rat H9c2 cells assessed as increase in SOD level preincubated with compound followed by hypoxic reoxygenation induction; assay type: functional, cell-based; conditions: dose 5-20 µM
H9c2 [16] = experiment: Cardioprotective activity against MI/R induced rat H9c2 cells assessed as upregulation of VEGFA protein expression at 5 to 20 uM pretreated with compound followed by MI/R induction by Western blotting assay; assay type: functional, cell-based; conditions: dose 5-20 µM
Rattus norvegicus [17] = experiment: Cardioprotective activity in myocardial ischemia/reperfusion induced rat injury model assessed as improvement in damaged left ventricular diastolic pressure at 5 to 20 mg/kg, iv measured after 30 mins; assay type: functional, organism-based; conditions: dose 5-20 mg/kg
Chorioallantoic membrane = experiment: Angiogenesis activity in chicken embryo chorioallantoic membrane assessed as increase in total number of blood vessels incubated for 132 hrs by CAM assay; assay type: functional, tissue-based; conditions: Gallus gallus
H9c2 [18] = experiment: Protection against H/R induced damage in rat H9c2 cells assessed as reduction in LDH level at 20 uM preincubated with compound followed by hypoxic reoxygenation induction; assay type: functional, cell-based
H9c2 [19] = experiment: Cardioprotective activity against MI/R induced rat H9c2 cells assessed as reduction in BNP protein expression at 5 to 20 uM pretreated with compound followed by MI/R induction by Western blotting assay; assay type: functional, cell-based; conditions: dose 5-20 µM
Rattus norvegicus [20] = experiment: Cardioprotective activity in iv dosed myocardial ischemia/reperfusion induced rat injury model assessed as reduction in serum LDH level pretreated with compound followed by MI/R induction measured after 30 mins; assay type: functional, organism-based; conditions: dose 5-20 mg/kg
H9c2 [21] = experiment: Cardioprotective activity against H/R induced damage in rat H9c2 cells assessed as upregulation of VEGFA gene expression at 5 to 20 uM by RT-qPCR assay; assay type: functional, cell-based; conditions: dose 5-20 µM
H9c2 [22] = experiment: Cardioprotective activity against MI/R induced rat H9c2 cells assessed as upregulation of ADCY5 protein expression at 5 to 20 uM pretreated with compound followed by MI/R induction by Western blotting assay; assay type: functional, cell-based; conditions: dose 5-20 µM
Rattus norvegicus [23] = experiment: Cardioprotective activity in myocardial ischemia/reperfusion induced rat injury model assessed as improvement in damaged ventricular systolic function at 5 to 20 mg/kg, iv measured after 30 mins; assay type: functional, organism-based; conditions: dose 5-20 mg/kg
Rattus norvegicus [24] = experiment: Cardioprotective activity in myocardial ischemia/reperfusion induced rat injury model assessed as improvement in damaged left ventricular systolic pressure at 5 to 20 mg/kg, iv measured after 30 mins; assay type: functional, organism-based; conditions: dose 5-20 mg/kg
Rattus norvegicus [25] = experiment: Cardioprotective activity in myocardial ischemia/reperfusion induced rat injury model assessed as prevention of average femoral artery blood pressure decrease at 5 to 20 mg/kg, iv measured after 30 mins; assay type: functional, organism-based; conditions: dose 5-20 mg/kg
H9c2 [26] = experiment: Cardioprotective activity against H/R induced damage in rat H9c2 cells assessed as reduction in PP2B gene expression by RT-qPCR assay; assay type: functional, cell-based; conditions: dose 5-20 µM
H9c2 [27] = experiment: Cardioprotective activity against MI/R induced rat H9c2 cells assessed as upregulation of CREB3L4 protein expression at 5 to 20 uM pretreated with compound followed by MI/R induction by Western blotting assay; assay type: functional, cell-based; conditions: dose 5-20 µM
H9c2 [28] = experiment: Protection against H/R induced damage in rat H9c2 cells assessed as increase in cell viability at 1 to 20 umol/L preincubated for 2 hrs followed by hypoxic reoxygenation induction by CCK-8 assay (reference value: 45.1 +/- 2.1%); assay type: functional; conditions: dose 1-20 µmol/L; at 1 to 20 µM
[29] = Toxicity in rat assessed as change in organ index at 20 to 100 mg/kg, iv measured after 14 days; assay type: organism-based; conditions: in vivo, 336 h, dose 20-100 mg/kg, time 14 day
H9c2 [30] = experiment: Cardioprotective activity against MI/R induced rat H9c2 cells assessed as reduction in PP2B protein expression at 5 to 20 uM pretreated with compound followed by MI/R induction by Western blotting assay; assay type: functional, cell-based; conditions: dose 5-20 µM
[31] = Drug accumulation in rat heart at 5 to 20 mg/kg, iv measured after 2 hrs by HPLC analysis; assay type: ADME, organism-based; conditions: in vivo, dose 5-20 mg/kg
H9c2 [32] = experiment: Protection against H/R induced damage in rat H9c2 cells assessed as reduction in CK-MB level at 20 uM preincubated with compound followed by hypoxic reoxygenation induction; assay type: functional, cell-based
H9c2 [33] = experiment: Cardioprotective activity against H/R induced damage in rat H9c2 cells assessed as upregulation of ADCY5 gene expression at 5 to 20 uM by RT-qPCR assay; assay type: functional, cell-based; conditions: dose 5-20 µM
[34] = Toxicity in rat assessed as change in organ color at 20 to 100 mg/kg, iv measured after 14 days; assay type: organism-based; conditions: in vivo, 336 h, dose 20-100 mg/kg, time 14 day
H9c2 [35] = experiment: Cardioprotective activity against H/R induced damage in rat H9c2 cells assessed as reduction in BNP gene expression by RT-qPCR assay; assay type: functional, cell-based; conditions: dose 5-20 µM

O=C(CCC[C@@H]1[C@H]2CCCN3CCC[C@@H](CN1Cc1ccccc1)[C@@H]23)NCCC1=CC=CCC1=S
Activity (H9c2 [1]): Non-Toxic

O=C(CCC[C@@H]1[C@H]2CCCN3CCC[C@@H](CN1Cc1ccccc1)[C@@H]23)NC1CCCCC1
Activity (H9c2 [1]): Non-Toxic

O=C(CCC[C@@H]1[C@H]2CCCN3CCC[C@@H](CN1Cc1ccccc1)[C@@H]23)NC1CCCC1
Activity (H9c2 [1]): Non-Toxic

CC(C)NCC(O)COc1ccc(CC(N)=O)cc1 (configuration not stated)
Activity (Rattus norvegicus [2]): Active
Activity (Rattus norvegicus [3]): Active

CCOCCNC(=O)CCC[C@@H]1[C@H]2CCCN3CCC[C@@H](CN1Cc1ccccc1)[C@@H]23
Activity (H9c2 [1]): Non-Toxic

O=C(CCC[C@@H]1[C@H]2CCCN3CCC[C@@H](CN1Cc1ccccc1)[C@@H]23)NCCOCCO
Activity (H9c2 [4]): Active

O=C(CCC[C@@H]1[C@H]2CCCN3CCC[C@@H](CN1Cc1ccccc1)[C@@H]23)NC1CCC1
Activity (H9c2 [1]): Non-Toxic

O=C1CCC[C@@H]2[C@H]3CCCN4CCC[C@@H](CN12)[C@@H]34 [MATRINE]
Activity (H9c2 [1]): Non-Toxic

O=C(CCC[C@@H]1[C@H]2CCCN3CCC[C@@H](CN1Cc1ccccc1)[C@@H]23)NCCOCCOC(=O)c1sccc1Cl
Activity (Rattus norvegicus [5]): Dose-Dependent Effect
Activity (Rattus norvegicus [6]): Active
Activity [7]: Non-Toxic
Activity (Rattus norvegicus [8]): Active
Activity (Rattus norvegicus [9]): Active
Activity (H9c2 [10]): Active
Activity (Rattus norvegicus [2]): Active
Activity (Rattus norvegicus [11]): Dose-Dependent Effect
Activity (H9c2 [12]): Active
Activity (H9c2 [13]): Dose-Dependent Effect
Activity (H9c2 [14]): Active
Activity (H9c2 [15]): Dose-Dependent Effect
Activity (H9c2 [16]): Active
Activity (Rattus norvegicus [17]): Active
Activity (Chorioallantoic membrane): Active
Activity (H9c2 [18]): Active
Activity (H9c2 [19]): Active
Activity (Rattus norvegicus [20]): Dose-Dependent Effect
Activity (H9c2 [21]): Active
Activity (H9c2 [22]): Active
Activity (Rattus norvegicus [23]): Active
Activity (Rattus norvegicus [24]): Active
Activity (Rattus norvegicus [25]): Active
Activity (H9c2 [26]): Dose-Dependent Effect
Activity (H9c2 [27]): Active
Activity (H9c2 [28]): 93.2%
Activity [29]: Non-Toxic
Activity (H9c2 [30]): Active
Drug uptake [31]: Active
Activity (H9c2 [32]): Active
Activity (H9c2 [33]): Active
Activity [34]: Non-Toxic
Activity (H9c2 [35]): Dose-Dependent Effect
Activity (Rattus norvegicus [3]): Active

O=C(CCC[C@@H]1[C@H]2CCCN3CCC[C@@H](CN1Cc1ccccc1)[C@@H]23)NC1CC1
Activity (H9c2 [1]): Non-Toxic

O=C(CCC[C@@H]1[C@H]2CCCN3CCC[C@@H](CN1Cc1ccccc1)[C@@H]23)Nc1cccnn1
Activity (H9c2 [1]): Non-Toxic

O=C(CCC[C@@H]1[C@H]2CCCN3CCC[C@@H](CN1Cc1ccccc1)[C@@H]23)NCCc1c[nH]c2ccccc12
Activity (H9c2 [1]): Non-Toxic

O=C(CCC[C@@H]1[C@H]2CCCN3CCC[C@@H](CN1Cc1ccccc1)[C@@H]23)NCCc1ccc(O)cc1
Activity (H9c2 [1]): Non-Toxic
